# ChEMBL document CHEMBL1121615, “Synthesis and analgesic properties of some conformationally restricted analogues of profadol” (1980)
# Legend:
# Format in all cases: functional
# [1] = system: Mus musculus; assay: Analgesia was determined by writhing test in mice after 30 mg/kg oral administration; Range is 50-74%.
# [2] = system: Mus musculus; assay: The ED50 value of compound was measured for 50% inhibition for analgesia in mice after oral administration by the hotplate method
# [3] = system: Mus musculus; assay: Analgesia was determined by writhing test in mice after 10 mg/kg oral administration
# [4] = system: Mus musculus; assay: Analgesia was determined by writhing test in mice after 100 mg/kg oral administration; Range is 50-74%.
# [5] = system: Mus musculus; assay: Analgesia was determined by writhing test in mice after 100 mg/kg oral administration; Range is 25-49%.
# [6] = system: Mus musculus; assay: Analgesia was determined by writhing test in mice after 30 mg/kg oral administration
# [7] = organism: Mus musculus; assay: animal or person
# Description: The ED50 value of compound was measured for 50% inhibition for analgesia in mice by the hotplate method
# [8] = system: Mus musculus; assay: Analgesia was determined by writhing test in mice after 100 mg/kg oral administration; Range is 75-99%.
smiles,measurement,setting,value
COc1ccc2c(c1)C1(CCC2)CCN(C)C1 (stereo not given),inhibition in vivo at 30 mg/kg,[1],50%
same,ED50,[2],> 50 mg/kg
CCCC1(c2cccc(O)c2)CCN(C)C1 (stereo not given) [PROFADOL],inhibition in vivo at 10 mg/kg,[3],100%
same,ED50,[2],3.9 mg/kg
Oc1ccc2c(c1)CCCC21CCNC1 (stereo not given),inhibition in vivo at 100 mg/kg,[4],50%
COc1ccc2c(c1)CCCC21CCNC1 (stereo not given),inhibition in vivo at 100 mg/kg,[5],25%
CN1CCC2(CCCc3c(O)cccc32)C1 (stereo not given),inhibition in vivo at 100 mg/kg,[5],25%
Br.Oc1cccc2c1CCCC21CCNC1 (stereo not given),inhibition in vivo at 30 mg/kg,[1],50%
same,ED50,[2],> 50 mg/kg
CN1CCC2(CCCc3ccccc32)C1.Cl (stereo not given),inhibition in vivo at 30 mg/kg,[6],100%
same,ED50,[7],12.1 mg/kg
Oc1ccc2c(c1)C1(CCC2)CCNC1 (stereo not given),inhibition in vivo at 100 mg/kg,[4],50%
Cl.c1ccc2c(c1)CCCC21CCNC1 (stereo not given),inhibition in vivo at 30 mg/kg,[6],100%
same,ED50,[7],13.3 mg/kg
COc1ccc2c(c1)CCCC21CCN(C)C1 (stereo not given),inhibition in vivo at 100 mg/kg,[4],50%
COc1ccc2c(c1)C1(CCC2)CCNC1 (stereo not given),inhibition in vivo at 100 mg/kg,[5],25%
CN1CC[C@]23c4c5ccc(O)c4O[C@H]2[C@@H](O)C=C[C@H]3[C@H]1C5.Cl [MORPHINE HYDROCHLORIDE],inhibition in vivo at 10 mg/kg,[3],100%
same,ED50,[7],1.2 mg/kg
COc1cccc2c1CCCC21CCN(C)C1 (stereo not given),inhibition in vivo at 100 mg/kg,[8],75%
COc1cccc2c1CCCC21CCNC1 (stereo not given),inhibition in vivo at 30 mg/kg,[1],50%
same,ED50,[7],48.6 mg/kg
Br.CN1CCC2(CCCc3cc(O)ccc32)C1 (stereo not given),inhibition in vivo at 30 mg/kg,[1],50%
same,ED50,[7],> 50 mg/kg
Br.CN1CCC2(CCCc3ccc(O)cc32)C1 (stereo not given),inhibition in vivo at 30 mg/kg,[1],50%
same,ED50,[7],42.8 mg/kg
